Tested on: 361931-004-R-J1-PDC multicell spheroid viability
Test: Anticancer human tumor 361931-004-R-J1-PDC patient-derived colon adenocarcinoma cell line growth inhibition [PI3K]
Details: for IC50: curve of first compound; for viability, T/C: stronger effect = lower value
Method in brief: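 Three cell types, namely tumor cells, endothelial cells and mesenchymal stem cells, formed each spheroid. Combinations with four PI3K inhibitors were screened at clinically achievable concentrations decreasing by half-log, and spheroid viability was recorded.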

[1] = second compound 0.0316 µM, first compound 0.0316 µM
[2] = second compound 0.0316 µM, first compound 0.1 µM
[3] = second compound 0.0316 µM, first compound 0.316 µM
[4] = second compound 0.0316 µM, first compound 1 µM
[5] = second compound 0.0316 µM, first compound 3.16 µM
[6] = second compound 0.0316 µM, first compound 10 µM
[7] = second compound 0.1 µM, first compound 0.0316 µM
[8] = second compound 0.1 µM, first compound 0.1 µM
[9] = second compound 0.1 µM, first compound 0.316 µM
[10] = second compound 0.1 µM, first compound 1 µM
[11] = second compound 0.1 µM, first compound 3.16 µM
[12] = second compound 0.1 µM, first compound 10 µM
[13] = second compound 0.316 µM, first compound 0.0316 µM
[14] = second compound 0.316 µM, first compound 0.1 µM
[15] = second compound 0.316 µM, first compound 0.316 µM
[16] = second compound 0.316 µM, first compound 1 µM
[17] = second compound 0.316 µM, first compound 3.16 µM
[18] = second compound 0.316 µM, first compound 10 µM
[19] = second compound 1 µM, first compound 0.0316 µM
[20] = second compound 1 µM, first compound 0.1 µM
[21] = second compound 1 µM, first compound 0.316 µM
[22] = second compound 1 µM, first compound 1 µM
[23] = second compound 1 µM, first compound 3.16 µM
[24] = second compound 1 µM, first compound 10 µM
[25] = second compound 3.16 µM, first compound 0.0316 µM
[26] = second compound 3.16 µM, first compound 0.1 µM
[27] = second compound 3.16 µM, first compound 0.316 µM
[28] = second compound 3.16 µM, first compound 1 µM
[29] = second compound 3.16 µM, first compound 3.16 µM
[30] = second compound 3.16 µM, first compound 10 µM
[31] = second compound 10 µM, first compound 0.0316 µM
[32] = second compound 10 µM, first compound 0.1 µM
[33] = second compound 10 µM, first compound 0.316 µM
[34] = second compound 10 µM, first compound 1 µM
[35] = second compound 10 µM, first compound 3.16 µM
[36] = second compound 10 µM, first compound 10 µM
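Also: spheroids exposed to agents for seven days before readout.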

## C=CC(=O)N1CCN(c2nc(=O)n(-c3c(C)ccnc3C(C)C)c3nc(-c4c(O)cccc4F)c(F)cc23)C(C)C1 (stereo not given) + Cc1nc(NC(=O)N2CCCC2C(N)=O)sc1-c1ccnc(C(C)(C)C(F)(F)F)c1
Second compound 0.0316 µM
  IC50: > 10000 nM
Second compound 0.1 µM
  IC50: > 10000 nM
Second compound 0.316 µM
  IC50: > 10000 nM
Second compound 1 µM
  IC50: > 10000 nM
Second compound 3.16 µM
  IC50: > 10000 nM
Second compound 10 µM
  IC50: > 10000 nM
[1]
  viability, T/C: 91%
[2]
  viability, T/C: 102%
[3]
  viability, T/C: 87.7%
[4]
  viability, T/C: 96.5%
[5]
  viability, T/C: 93.3%
[6]
  viability, T/C: 73.9%
[7]
  viability, T/C: 91.8%
[8]
  viability, T/C: 96.8%
[9]
  viability, T/C: 98.6%
[10]
  viability, T/C: 99%
[11]
  viability, T/C: 97.4%
[12]
  viability, T/C: 61.7%
[13]
  viability, T/C: 96.6%
[14]
  viability, T/C: 96.7%
[15]
  viability, T/C: 99.5%
[16]
  viability, T/C: 85.2%
[17]
  viability, T/C: 96.3%
[18]
  viability, T/C: 73.5%
[19]
  viability, T/C: 90.2%
[20]
  viability, T/C: 83.4%
[21]
  viability, T/C: 80.5%
[22]
  viability, T/C: 73.6%
[23]
  viability, T/C: 80.8%
[24]
  viability, T/C: 63%
[25]
  viability, T/C: 74.9%
[26]
  viability, T/C: 85.6%
[27]
  viability, T/C: 67%
[28]
  viability, T/C: 69.9%
[29]
  viability, T/C: 72.8%
[30]
  viability, T/C: 55.5%
[31]
  viability, T/C: 58.4%
[32]
  viability, T/C: 61.2%
[33]
  viability, T/C: 56.9%
[34]
  viability, T/C: 68.3%
[35]
  viability, T/C: 57.8%
[36]
  viability, T/C: 40%

## CC(C)NCC(C(=O)N1CCN(c2ncnc3c2C(C)CC3O)CC1)c1ccc(Cl)cc1 (stereo not given) + Cc1nc(NC(=O)N2CCCC2C(N)=O)sc1-c1ccnc(C(C)(C)C(F)(F)F)c1
Second compound 0.0316 µM
  IC50: 1380 nM
Second compound 0.1 µM
  IC50: 1520 nM
Second compound 0.316 µM
  IC50: 1090 nM
Second compound 1 µM
  IC50: 1080 nM
Second compound 3.16 µM
  IC50: 1020 nM
Second compound 10 µM
  IC50: 631 nM
[1]
  viability, T/C: 96.2%
[2]
  viability, T/C: 102%
[3]
  viability, T/C: 85.4%
[4]
  viability, T/C: 56.2%
[5]
  viability, T/C: 34.5%
[6]
  viability, T/C: 27%
[7]
  viability, T/C: 97%
[8]
  viability, T/C: 87.4%
[9]
  viability, T/C: 94.3%
[10]
  viability, T/C: 60.2%
[11]
  viability, T/C: 30.7%
[12]
  viability, T/C: 17.6%
[13]
  viability, T/C: 96.8%
[14]
  viability, T/C: 93.9%
[15]
  viability, T/C: 68.5%
[16]
  viability, T/C: 51.5%
[17]
  viability, T/C: 34.2%
[18]
  viability, T/C: 18.1%
[19]
  viability, T/C: 87.9%
[20]
  viability, T/C: 96.7%
[21]
  viability, T/C: 76.8%
[22]
  viability, T/C: 50.6%
[23]
  viability, T/C: 29.6%
[24]
  viability, T/C: 16.7%
[25]
  viability, T/C: 72.3%
[26]
  viability, T/C: 84%
[27]
  viability, T/C: 73.9%
[28]
  viability, T/C: 46.6%
[29]
  viability, T/C: 29.7%
[30]
  viability, T/C: 13.4%
[31]
  viability, T/C: 62.1%
[32]
  viability, T/C: 56.8%
[33]
  viability, T/C: 63.4%
[34]
  viability, T/C: 42.4%
[35]
  viability, T/C: 21.6%
[36]
  viability, T/C: 11.9%

## CCN1CCN(Cc2ccc(Nc3ncc(F)c(-c4cc(F)c5nc(C)n(C(C)C)c5c4)n3)nc2)CC1 + Cc1nc(NC(=O)N2CCCC2C(N)=O)sc1-c1ccnc(C(C)(C)C(F)(F)F)c1
Second compound 0.0316 µM
  IC50: > 1000 nM
Second compound 0.1 µM
  IC50: > 1000 nM
Second compound 0.316 µM
  IC50: > 1000 nM
Second compound 1 µM
  IC50: 605 nM
Second compound 3.16 µM
  IC50: 111 nM
Second compound 10 µM
  IC50: 18.9 nM
Second compound 0.0316 µM, first compound 0.00316 µM
  viability, T/C: 91.8%
Second compound 0.0316 µM, first compound 0.01 µM
  viability, T/C: 99.3%
[1]
  viability, T/C: 99.5%
[2]
  viability, T/C: 93.8%
[3]
  viability, T/C: 79.7%
[4]
  viability, T/C: 82.1%
Second compound 0.1 µM, first compound 0.00316 µM
  viability, T/C: 99.6%
Second compound 0.1 µM, first compound 0.01 µM
  viability, T/C: 97.2%
[7]
  viability, T/C: 96.6%
[8]
  viability, T/C: 82.6%
[9]
  viability, T/C: 81.7%
[10]
  viability, T/C: 57.4%
Second compound 0.316 µM, first compound 0.00316 µM
  viability, T/C: 97.9%
Second compound 0.316 µM, first compound 0.01 µM
  viability, T/C: 90.2%
[13]
  viability, T/C: 83.8%
[14]
  viability, T/C: 72.6%
[15]
  viability, T/C: 69.5%
[16]
  viability, T/C: 56.4%
Second compound 1 µM, first compound 0.00316 µM
  viability, T/C: 95.2%
Second compound 1 µM, first compound 0.01 µM
  viability, T/C: 87.7%
[19]
  viability, T/C: 75.2%
[20]
  viability, T/C: 74.3%
[21]
  viability, T/C: 65.2%
[22]
  viability, T/C: 39.7%
Second compound 3.16 µM, first compound 0.00316 µM
  viability, T/C: 75.4%
Second compound 3.16 µM, first compound 0.01 µM
  viability, T/C: 67.2%
[25]
  viability, T/C: 54.9%
[26]
  viability, T/C: 51.9%
[27]
  viability, T/C: 46%
[28]
  viability, T/C: 37.3%
Second compound 10 µM, first compound 0.00316 µM
  viability, T/C: 65.9%
Second compound 10 µM, first compound 0.01 µM
  viability, T/C: 59%
[31]
  viability, T/C: 40.6%
[32]
  viability, T/C: 40.5%
[33]
  viability, T/C: 32.2%
[34]
  viability, T/C: 30.5%

## Cn1ncc(Cl)c1-c1cc(C(=O)NC(CN)Cc2cccc(F)c2)sc1Cl (stereo not given) + Cc1nc(NC(=O)N2CCCC2C(N)=O)sc1-c1ccnc(C(C)(C)C(F)(F)F)c1
Second compound 0.0316 µM
  IC50: 1320 nM
Second compound 0.1 µM
  IC50: 922 nM
Second compound 0.316 µM
  IC50: 793 nM
Second compound 1 µM
  IC50: 715 nM
Second compound 3.16 µM
  IC50: 628 nM
Second compound 10 µM
  IC50: 411 nM
[1]
  viability, T/C: 98.5%
[2]
  viability, T/C: 95%
[3]
  viability, T/C: 83.4%
[4]
  viability, T/C: 53.4%
[5]
  viability, T/C: 34.3%
[6]
  viability, T/C: 19.7%
[7]
  viability, T/C: 96.3%
[8]
  viability, T/C: 95.3%
[9]
  viability, T/C: 71.8%
[10]
  viability, T/C: 48.8%
[11]
  viability, T/C: 29.8%
[12]
  viability, T/C: 20.5%
[13]
  viability, T/C: 100%
[14]
  viability, T/C: 87.5%
[15]
  viability, T/C: 77.2%
[16]
  viability, T/C: 40%
[17]
  viability, T/C: 28%
[18]
  viability, T/C: 14.5%
[19]
  viability, T/C: 89.8%
[20]
  viability, T/C: 93.7%
[21]
  viability, T/C: 72.3%
[22]
  viability, T/C: 39.1%
[23]
  viability, T/C: 28.8%
[24]
  viability, T/C: 16%
[25]
  viability, T/C: 77.4%
[26]
  viability, T/C: 87.1%
[27]
  viability, T/C: 67.8%
[28]
  viability, T/C: 35.1%
[29]
  viability, T/C: 29.2%
[30]
  viability, T/C: 11.6%
[31]
  viability, T/C: 77.2%
[32]
  viability, T/C: 69.1%
[33]
  viability, T/C: 54.9%
[34]
  viability, T/C: 34.2%
[35]
  viability, T/C: 20.6%
[36]
  viability, T/C: 7.91%

## Cn1nccc1Nc1nccc(-c2ccn(C(CO)c3ccc(Cl)c(F)c3)c(=O)c2)n1 (stereo not given) + Cc1nc(NC(=O)N2CCCC2C(N)=O)sc1-c1ccnc(C(C)(C)C(F)(F)F)c1
Second compound 0.0316 µM
  IC50: 9920 nM
Second compound 0.1 µM
  IC50: 7970 nM
Second compound 0.316 µM
  IC50: 6310 nM
Second compound 1 µM
  IC50: 3140 nM
Second compound 3.16 µM
  IC50: 1190 nM
Second compound 10 µM
  IC50: 213 nM
[1]
  viability, T/C: 106%
[2]
  viability, T/C: 101%
[3]
  viability, T/C: 90.4%
[4]
  viability, T/C: 94.5%
[5]
  viability, T/C: 85.9%
[6]
  viability, T/C: 49.2%
[7]
  viability, T/C: 108%
[8]
  viability, T/C: 109%
[9]
  viability, T/C: 101%
[10]
  viability, T/C: 89.4%
[11]
  viability, T/C: 78.8%
[12]
  viability, T/C: 42.9%
[13]
  viability, T/C: 112%
[14]
  viability, T/C: 110%
[15]
  viability, T/C: 95.5%
[16]
  viability, T/C: 86.8%
[17]
  viability, T/C: 69.8%
[18]
  viability, T/C: 37.3%
[19]
  viability, T/C: 99.5%
[20]
  viability, T/C: 99.6%
[21]
  viability, T/C: 94%
[22]
  viability, T/C: 83.2%
[23]
  viability, T/C: 49.4%
[24]
  viability, T/C: 26.9%
[25]
  viability, T/C: 91.4%
[26]
  viability, T/C: 87.2%
[27]
  viability, T/C: 75.9%
[28]
  viability, T/C: 56.6%
[29]
  viability, T/C: 24%
[30]
  viability, T/C: 10.4%
[31]
  viability, T/C: 80%
[32]
  viability, T/C: 63.5%
[33]
  viability, T/C: 43.6%
[34]
  viability, T/C: 19%
[35]
  viability, T/C: 4.98%
[36]
  viability, T/C: 2.3%
